Laboratory results from patent US10696687B2, “Pyrazolo fused heterocyclic compounds as ERK inhibitors” (CHANGZHOU JIEKAI PHARMATECH CO., LTD., priority 2015, dated 2020).

Tested on: Colon cancer cells (Colo205 cell line)
Experiment: Colo205 cell proliferation assay (MTT assay, WST-8 readout)
Format: cell-based
Details: Homo sapiens, COLO 205, 72 hours incubation, absorbance at 450 nm, read-out: Colo 205 cell growth inhibition IC50
Method: Compounds disclosed herein were tested for the inhibition of ERK2 by a Colo205 cell proliferation assay commonly known as MTT assay. In this assay, a complete media was prepared by adding 10% fetal bovine serum to RPMI-1640 medium (Life technology). Colon cancer cells (Colo205 cell line) were added to each of 88 wells of a 96 well plate at a seeding density of 5,000 cells/well/90 μL. The cells were allowed to attach to the plate by incubating at 37° C. for 24 hours. The compound was dissolved in DMSO (SIGMA). A solution of test compound was prepared in complete media by serial dilution to obtain the following concentrations: 500 μM, 150 μM, 50 μM, 15 μM, 5 μM, 1.5 μM, 0.5 μM, 0.15 μM and 0.05 μM. The test compound solution (10 μL) was added to each of 80 cell-containing wells. The final concentrations of the compound were following: 50 μM, 15 μM, 5 μM, 1.5 μM, 0.5 μM, 0.15 μM, 0.05 μM, 0.015 μM and 0.005 μM. The final concentration of DMSO is 0.5%. To the 8 remaining cell-containing wells, only complete media (containing 0.5% DMSO) was added to form a control group in order to measure maximal proliferation. To the remaining 8 empty wells, complete media was added to for a vehicle control group in order to measure background. The plates were incubated at 37° C. for 72 hours. 10 μL WST-8 solution (DOJINDO, Cell Counting KIT-8) was added to each well. The plates were further incubated at 37° C. for 2 hours, and then read for the absorbance using a microplate reader at 450 nm.

Row | IC50 | SMILES
1 | 0.052 to 10 µM | Cc1cc(-c2n[nH]c3ncc(C(=O)N[C@@H]4CN(C)C[C@H]4c4ccccc4Cl)cc23)ccn1 [Compound 33, N-((3S,4R)-4-(2-chlorophenyl)-1-methylpyrrolidin-3-yl)-3-(2-methylpyridin-4-yl)-1H-pyrazolo[3,4-b]pyridine-5-carboxamide]
2 | 0.052 to 10 µM | Cc1cc(-c2n[nH]c3ncc(C(=O)N[C@H]4CN(C)C[C@@H]4c4ccccc4Cl)cc23)ccn1 [Compound 34, N-((3R,4S)-4-(2-chlorophenyl)-1-methylpyrrolidin-3-yl)-3-(2-methylpyridin-4-yl)-1H-pyrazolo[3,4-b]pyridine-5-carboxamide]
3 | 0.052 to 10 µM | Cc1cc(-c2n[nH]c3ncc(C(=O)N[C@@H]4COC[C@H]4c4ccccc4)cc23)ccn1 [Compound 35, trans-3-(2-methylpyridin-4-yl)-N-(4-phenyltetrahydrofuran-3-yl)-1H-pyrazolo[3,4-b]pyridine-5-carboxamide]
4 | 0.052 to 10 µM | Cc1cc(-c2n[nH]c3sc(C(=O)NC(c4ccc(F)cc4)C(C)(C)O)cc23)ccn1 (stereo not shown) [Compound 55, N-(1-(4-fluorophenyl)-2-hydroxy-2-methylpropyl)-3-(2-methylpyridin-4-yl)-1H-thieno[2,3-c]pyrazole-5-carboxamide]

Further lines, the compound ahead of its results:

Row | SMILES | IC50
5 | Cc1cc(-c2n[nH]c3ccc(C(=O)N[C@@H]4CN(C)C[C@H]4c4ccccc4Cl)cc23)ccn1 [Compound 37, N-((3S,4R)-4-(2-chlorophenyl)-1-methylpyrrolidin-3-yl)-3-(2-methylpyridin-4-yl)-1H-indazole-5-carboxamide] | 0.052 to 10 µM
6 | Cc1cc(-c2n[nH]c3ccc(C(=O)N[C@@H]4CN(C)C[C@H]4c4ccccc4C(F)(F)F)cc23)ccn1 [Compound 39, N-((3S,4R)-1-methyl-4-(2-(trifluoromethyl)phenyl)pyrrolidin-3-yl)-3-(2-methylpyridin-4-yl)-1H-indazole-5-carboxamide] | 0.052 to 10 µM
7 | Cc1cc(-c2n[nH]c3ccc(C(=O)N[C@H]4CN(C)C[C@@H]4c4ccccc4C(F)(F)F)cc23)ccn1 [Compound 41, N-((3R,4S)-1-methyl-4-(2-(trifluoromethyl)phenyl)pyrrolidin-3-yl)-3-(2-methylpyridin-4-yl)-1H-indazole-5-carboxamide] | 0.052 to 10 µM
